Measurements taken from paper PMC8916643, “Molecular physiology of pumiliotoxin sequestration in a poison frog” (PLoS ONE, 2022).

Assays:
human recombinant CYP2B6 = molecular target: T1, human recombinant CYP2B6 (Homo sapiens, UniProt P20813); test: CYP phenotyping panel (PTX 251D clearance); type: in vitro ADME; settings: 1E-07 M PTX 251D; after 60 minutes
T1 construct: Eurofins Discovery Services (Eurofins Panlabs Inc) ran the assay
T1 sequence (P20813 1-491): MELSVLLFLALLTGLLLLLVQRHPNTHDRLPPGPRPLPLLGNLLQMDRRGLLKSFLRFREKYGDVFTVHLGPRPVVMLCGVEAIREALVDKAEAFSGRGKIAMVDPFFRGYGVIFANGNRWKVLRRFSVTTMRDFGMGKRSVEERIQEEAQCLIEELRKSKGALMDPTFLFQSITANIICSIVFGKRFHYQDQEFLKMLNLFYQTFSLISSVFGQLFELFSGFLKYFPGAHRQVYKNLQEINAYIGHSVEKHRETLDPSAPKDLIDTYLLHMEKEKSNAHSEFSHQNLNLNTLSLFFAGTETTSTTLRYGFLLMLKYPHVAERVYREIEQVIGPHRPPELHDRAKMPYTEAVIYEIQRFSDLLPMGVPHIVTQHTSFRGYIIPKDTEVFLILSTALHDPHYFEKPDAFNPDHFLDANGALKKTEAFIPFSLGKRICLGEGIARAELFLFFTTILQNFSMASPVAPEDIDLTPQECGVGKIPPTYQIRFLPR
Method: (§1) Assays for human CYP activity (CYP phenotyping), CYP2D6 metabolite discovery (metID), ion channel inhibition (CiPA), and G-protein coupled receptor (GPCR) activity (gpcrMAX) were performed through Eurofins Discovery Services (Eurofins Panlabs Inc, St. Charles MO, USA). In the CYP phenotyping panel, human recombinant CYP1A2, CYP2B6, CYP2C8, CYP2C9, CYP2C19, CYP2D6, and CYP3A4 were included in the assay. A concentration of 1E-07 M of PTX 251D was tested, and the percent compound remaining was quantified at 0, 15, 30, 45, and 60 minutes using HPLC-MS/MS. As a positive control, a reference compound was used for each CYP tested (see S1 File for results). In the CYP2D6 metabolism assay, human recombinant CYP2D6 was incubated with an initial concentration of 10 μM and metabolites were quantified after 90 minutes using LC-MS/MS. Two replicates were used for the CYP phenotyping panel and one replicate was used for CYP2D6 metabolite assay. The CiPA assay was a cell-based QPatch on voltage-gated sodium channel NaV1.5 (peak and late/agonist), voltage-gated potassium channels Kv4.3/KChIP2, hERG, KCNQ1/minK, Kir2.1, and voltage-gated calcium channel Cav1.2. The concentrations of PTX 251D assayed were 3, 10, and 30 μM, and a reference compound for each channel was used (see S1 File for results and individual QPatch parameters). In the gpcrMAX assay a panel of 165 GPCRs was tested through the DiscoverX PathHunter beta-arrestin enzyme fragment complementation technology, and a concentration of 10 μM PTX 251D was tested for both agonist and antagonist activity along with a reference compound for each GPCR (see S1 File for results).

human recombinant CYP2C9 = molecular target: T2, human recombinant CYP2C9 (Homo sapiens, UniProt P11712); test: CYP phenotyping panel (PTX 251D clearance); type: in vitro ADME; settings: 1E-07 M PTX 251D; after 60 minutes
T2 construct: Eurofins Discovery Services (Eurofins Panlabs Inc) ran the assay
Method: as §1

human recombinant CYP2D6 = molecular target: T3, human recombinant CYP2D6 (Homo sapiens, UniProt P10635); test: CYP phenotyping panel (PTX 251D clearance); type: in vitro ADME; settings: 1E-07 M PTX 251D
T3 construct: Eurofins Discovery Services (Eurofins Panlabs Inc) ran the assay
Method: as §1

human recombinant CYP3A4 = molecular target: T4, human recombinant CYP3A4 (Homo sapiens, UniProt P08684); test: CYP phenotyping panel (PTX 251D clearance); type: in vitro ADME; settings: 1E-07 M PTX 251D; after 60 minutes
T4 construct: Eurofins Discovery Services (Eurofins Panlabs Inc) ran the assay
Method: as §1

[1] = test system: gene expression in intestines, liver, and skin; test: RNA sequencing, differential gene expression after PTX 251D feeding; type: in vivo, Dendrobates tinctorius
Description: Lab-reared (non-toxic) Dendrobates tinctorius were housed in terraria with live plants, a water pool, and a shelter. Ten adult females were size-matched, randomly assigned to control or experimental groups (N = 5 per group), and then housed individually. To measure the specific effects of PTX 251D compared to a background toxicity, the control group was fed 0.01% DHQ (Sigma-Aldrich, St. Louis, USA) in a solution of 1% EtOH and the experimental group was fed a solution of 0.01% DHQ and 0.01% PTX 251D (PepTech, Burlington, MA, USA) in a solution of 1% EtOH in water. Each frog was fed 15 μL each day for five days by pipetting the solution directly into the mouth between 10am-12pm. […]
RNA extraction followed the Trizol (Thermo Fisher Scientific, Waltham, MA, USA) protocol outlined in Caty et al. 2019 [16] and according to the manufacturer’s instructions. […] Libraries were quantified with quantitative PCR (NEBnext Library quantification kit, New England Biolabs, Ipswich, USA) and a Agilent Bioanalyzer High Sensitivity DNA chip, both according to manufacturer’s instructions. All libraries were pooled at equimolar amounts and were sequenced on four lanes of an Illumina HiSeq 4000 machine to obtain 150 bp paired-end reads. […]

T3 sequence (P10635 whole entry): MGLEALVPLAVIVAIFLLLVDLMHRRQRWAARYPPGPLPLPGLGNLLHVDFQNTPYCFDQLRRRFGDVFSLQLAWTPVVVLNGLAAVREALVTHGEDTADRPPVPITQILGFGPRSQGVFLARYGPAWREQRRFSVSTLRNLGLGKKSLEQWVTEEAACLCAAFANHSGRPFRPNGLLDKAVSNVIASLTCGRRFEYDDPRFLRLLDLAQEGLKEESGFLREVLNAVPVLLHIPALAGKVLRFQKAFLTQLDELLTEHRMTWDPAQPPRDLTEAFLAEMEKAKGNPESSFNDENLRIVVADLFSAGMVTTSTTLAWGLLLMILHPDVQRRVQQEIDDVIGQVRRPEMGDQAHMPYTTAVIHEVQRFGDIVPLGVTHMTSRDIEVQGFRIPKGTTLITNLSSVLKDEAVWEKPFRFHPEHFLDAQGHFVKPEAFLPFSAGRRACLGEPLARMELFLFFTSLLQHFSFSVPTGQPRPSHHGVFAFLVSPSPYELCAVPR
T2 sequence (P11712 whole entry): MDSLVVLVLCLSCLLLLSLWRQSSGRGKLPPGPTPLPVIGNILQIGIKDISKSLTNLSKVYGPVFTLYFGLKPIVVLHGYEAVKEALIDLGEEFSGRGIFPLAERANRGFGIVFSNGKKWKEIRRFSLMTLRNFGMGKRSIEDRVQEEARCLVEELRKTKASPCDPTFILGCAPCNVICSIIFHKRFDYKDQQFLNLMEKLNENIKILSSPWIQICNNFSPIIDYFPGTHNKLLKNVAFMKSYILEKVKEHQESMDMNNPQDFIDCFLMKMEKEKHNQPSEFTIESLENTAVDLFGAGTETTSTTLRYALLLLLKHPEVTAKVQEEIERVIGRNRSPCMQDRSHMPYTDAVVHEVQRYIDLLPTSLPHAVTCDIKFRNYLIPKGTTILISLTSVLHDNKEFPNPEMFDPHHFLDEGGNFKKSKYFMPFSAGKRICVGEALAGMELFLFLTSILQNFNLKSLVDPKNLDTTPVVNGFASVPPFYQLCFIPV
T4 sequence (P08684 whole entry): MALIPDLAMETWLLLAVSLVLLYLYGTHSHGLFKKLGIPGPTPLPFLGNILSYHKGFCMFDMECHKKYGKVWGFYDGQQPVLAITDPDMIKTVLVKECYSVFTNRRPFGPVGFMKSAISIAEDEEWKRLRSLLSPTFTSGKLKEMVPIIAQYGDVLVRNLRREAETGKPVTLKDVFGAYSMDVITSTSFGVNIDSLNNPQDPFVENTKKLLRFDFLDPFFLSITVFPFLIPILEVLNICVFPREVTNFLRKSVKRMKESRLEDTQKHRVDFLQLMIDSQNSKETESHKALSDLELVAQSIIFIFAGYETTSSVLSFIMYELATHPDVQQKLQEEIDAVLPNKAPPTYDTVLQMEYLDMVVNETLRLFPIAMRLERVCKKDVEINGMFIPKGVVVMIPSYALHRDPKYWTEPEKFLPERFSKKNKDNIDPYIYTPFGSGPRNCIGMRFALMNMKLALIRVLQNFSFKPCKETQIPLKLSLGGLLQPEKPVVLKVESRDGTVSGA

In the case of `CCCCC(C)C=C1CN2CCCC2C(C)(O)C1` (stereo not shown) [PTX 251D, pumiliotoxin (PTX 251D)], the “clearance of PTX 251D by CYP2B6” value (human recombinant CYP2B6) is reported as “minimal clearance”, the “clearance of PTX 251D by CYP2C9” value (human recombinant CYP2C9) is reported as “minimal clearance” and the “PTX 251D remaining after incubation with CYP2D6” value (human recombinant CYP2D6; after 15 minutes) is reported as “most of the initial compound depleted”. For the same compound, the “clearance of PTX 251D by CYP2D6” value (human recombinant CYP2D6; percent compound remaining at 0-60 minutes, HPLC-MS/MS) was “rapid clearance”, the “clearance of PTX 251D by CYP3A4” value (human recombinant CYP3A4) was “minimal clearance” and the “expression of CYP2D6-like contig” value ([1]; intestines of frogs fed PTX 251D) was “upregulated”. The “CYP3A29 expression log2FC” value ([1]; intestines, DHQ+PTX vs DHQ) was 5.72.
